Literature values in US5859021A, “Antiviral combinations” (priority 1991, dated 1999).

How the values were obtained:
[1] = versus (+) enantiomer
patients with AIDS = details: for toxicity in patients: AIDS patients, AZT: long-term therapy
[2] = system: normal human bone marrow progenitor cells; details: combination with high-dose AZT, antiviral activity not affected

In the case of `Nc1ccn([C@@H]2CS[C@H](CO)O2)c(=O)n1` (racemic) [compound of formula (I), (±)-(cis)-4-Amino-1-(2-hydroxymethyl-1,3-oxathiolan-5-yl)-(1H)-pyrimidin-2-one], the “antiviral activity against HIV” value (HIV) is listed as “having antiviral activity”.
In the case of `Nc1ccn([C@@H]2CS[C@H](CO)O2)c(=O)n1` [3TC], the “cytotoxicity compared with the (+) enantiomer” value [1] is listed as “considerably lower cytotoxicity than the (+) enantiomer”.
For `Cc1cn([C@H]2C[C@H](N=[N+]=[N-])[C@@H](CO)O2)c(=O)[nH]c1=O` [AZT, 3'-azido-3'-deoxythymidine], the toxicity in patients (patients with AIDS) is given as “bone-marrow toxicity”, the “appearance of resistant HIV-1 variants” value (patients with AIDS; long-term AZT therapy) is given as “appearance of AZT-resistant variants of HIV-1” and the morbidity and mortality (patients with AIDS; patients with AIDS) is given as “reduces morbidity and mortality”. For the same compound, the “inhibition of HIV replication in vitro” value (HIV; in vitro) was “inhibit HIV replication in vitro” and the “antiviral activity in combination” value (HIV; in vitro, with recombinant soluble CD4, castanospermine and recombinant interferon alpha) was “synergistic antiviral activity”.
In the case of `Nc1ccn([C@H]2CC[C@@H](CO)O2)c(=O)n1` [ddC, 2',3'-dideoxycytidine], the toxicity in patients (patients with AIDS) is given as “peripheral neurophathy”, the “effect on bone marrow cytotoxicity of high-dose AZT” value [2] is given as “eliminates the bone marrow cytotoxicity of high-dose AZT” and the “antiviral activity of AZT in combination with ddC” value (HIV) is given as “without affecting its antiviral activity”. For the same compound, the “inhibition of HIV replication in vitro” value (HIV; in vitro) was “inhibit HIV replication in vitro”.
For `OC[C@@H]1CC[C@H](n2cnc3c(O)ncnc32)O1` [ddI, 2',3'-dideoxyinosine], the toxicity in patients (patients with AIDS) is given as “pancreatitis and peripheral neuropathy” and the “inhibition of HIV replication in vitro” value (HIV; in vitro) is given as “inhibit HIV replication in vitro”.
